# Results: patent publication US4520101A (priority 1983, dated 1985)
# Several values for one entry are separate records, joined by “and”; a condition that tells them apart may be missing. Identical values can stand only once.
# Tested on: Cephalosporium acremonium (a high ceph C-producing mutant strain which also produces desacetyl ceph C)
# Assay type: cell-based
smiles,measurement,value
CCOP(=O)(OCC)C(C)=O [diethyl acetyl phosphonate],Ceph C,9285 µg/g and 9665 µg/g
same,Des C/Total Ceph Nucleus (Ceph C + Des Ceph C),4.52% and 4.40%
same,Des Ceph C,440 µg/g and 445 µg/g
